Test results taken from US12077503B2, “Substituted cyclic amides and their use as herbicides” (FMC CORPORATION, priority 2015, dated 2024).

Columns and labels:
Assay in all cases: Test G Post-Emergence Protocol
Format in all cases: in vivo
[1] = tested on: redroot pigweed (Amaranthus retroflexus); conditions: Amaranthus retroflexus, post-emergence, 312 h; for pest or weed control at 15.625 g/ha: 15.625 g ai/ha, evaluated after 13 days (100=total damage to plant; 0=no damage to plant), read-out: Pigweed, Redroot damage rating; for pest or weed control at 62.5 g/ha: 62.5 g ai/ha, read-out: Pigweed, Redroot damage rating (100=total damage to plant; 0=no damage to plant); for pest or weed control at 62.5 g/ha / pest or weed control at 250 g/ha: evaluated after 13 days; for pest or weed control at 250 g/ha: 250 g ai/ha, read-out: damage to plant, Pigweed, Redroot (100=total damage to plant; 0=no damage to plant)
How it was run: (§1)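 Post-emergence herbicidal damage, scored visually 0–100 at 13 days. Application at 15.625, 62.5 or 250 g/ha onto 8-day-old plants grown under glasshouse control.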

[2] = tested on: giant foxtail (Setaria faberi); conditions: Setaria faberi, post-emergence, 312 h; for pest or weed control at 15.625 g/ha: 15.625 g ai/ha, evaluated after 13 days (100=total damage to plant; 0=no damage to plant), read-out: Foxtail, Giant damage rating; for pest or weed control at 62.5 g/ha: 62.5 g ai/ha, read-out: Foxtail, Giant damage rating (100=total damage to plant; 0=no damage to plant); for pest or weed control at 62.5 g/ha / pest or weed control at 250 g/ha: evaluated after 13 days; for pest or weed control at 250 g/ha: 250 g ai/ha, read-out: damage to plant, Foxtail, Giant (100=total damage to plant; 0=no damage to plant)
How it was run: as §1

corn (Zea mays) = conditions: Zea mays, post-emergence, 312 h; for plant injury at 15.625 g/ha: 15.625 g ai/ha, evaluated after 13 days (100=total damage to plant; 0=no damage to plant), read-out: Corn damage rating; for plant injury at 62.5 g/ha: 62.5 g ai/ha, read-out: Corn damage rating (100=total damage to plant; 0=no damage to plant); for plant injury at 62.5 g/ha / plant injury at 250 g/ha: evaluated after 13 days; for plant injury at 250 g/ha: 250 g ai/ha, read-out: damage to plant, Corn (100=total damage to plant; 0=no damage to plant)
How it was run: as §1

[3] = tested on: velvetleaf (Abutilon theophrasti); conditions: Abutilon theophrasti, post-emergence, 312 h; for pest or weed control at 15.625 g/ha: 15.625 g ai/ha, evaluated after 13 days (100=total damage to plant; 0=no damage to plant), read-out: Velvetleaf damage rating; for pest or weed control at 62.5 g/ha: 62.5 g ai/ha, read-out: Velvetleaf damage rating (100=total damage to plant; 0=no damage to plant); for pest or weed control at 62.5 g/ha / pest or weed control at 250 g/ha: evaluated after 13 days; for pest or weed control at 250 g/ha: 250 g ai/ha, read-out: damage to plant, Velvetleaf (100=total damage to plant; 0=no damage to plant)
How it was run: as §1

[4] = tested on: barnyardgrass (Echinochloa crus-galli); conditions: Echinochloa crus-galli, post-emergence, 312 h; for pest or weed control at 15.625 g/ha: 15.625 g ai/ha, evaluated after 13 days (100=total damage to plant; 0=no damage to plant), read-out: Barnyardgrass damage rating; for pest or weed control at 62.5 g/ha: 62.5 g ai/ha, read-out: Barnyardgrass damage rating (100=total damage to plant; 0=no damage to plant); for pest or weed control at 62.5 g/ha / pest or weed control at 250 g/ha: evaluated after 13 days; for pest or weed control at 250 g/ha: 250 g ai/ha, read-out: damage to plant, Barnyardgrass (100=total damage to plant; 0=no damage to plant)
How it was run: as §1

[5] = tested on: ivy-leaved morning glory (Ipomoea hederacea); conditions: Ipomoea, post-emergence, 312 h; for pest or weed control at 15.625 g/ha: 15.625 g ai/ha, evaluated after 13 days (100=total damage to plant; 0=no damage to plant), read-out: Morningglory, Ivy-leaved damage rating; for pest or weed control at 62.5 g/ha: 62.5 g ai/ha, read-out: Morningglory, Ivy-leaved damage rating (100=total damage to plant; 0=no damage to plant); for pest or weed control at 62.5 g/ha / pest or weed control at 250 g/ha: evaluated after 13 days; for pest or weed control at 250 g/ha: 250 g ai/ha, read-out: damage to plant, Morningglory, Ivy-leaved (100=total damage to plant; 0=no damage to plant)
How it was run: as §1

Structure (SMILES) | pest or weed control at 15.625 g/ha [1] | pest or weed control at 62.5 g/ha [1] | pest or weed control at 250 g/ha [1] | pest or weed control at 15.625 g/ha [2] | pest or weed control at 62.5 g/ha [2] | pest or weed control at 250 g/ha [2] | plant injury at 15.625 g/ha (corn (Zea mays)) | plant injury at 62.5 g/ha (corn (Zea mays)) | plant injury at 250 g/ha (corn (Zea mays)) | pest or weed control at 15.625 g/ha [3] | pest or weed control at 62.5 g/ha [3] | pest or weed control at 250 g/ha [3] | pest or weed control at 15.625 g/ha [4] | pest or weed control at 62.5 g/ha [4] | pest or weed control at 250 g/ha [4] | pest or weed control at 15.625 g/ha [5] | pest or weed control at 62.5 g/ha [5] | pest or weed control at 250 g/ha [5]
CN1C[C@@H](c2ccc(C(F)(F)F)cc2)[C@H](C(=O)Nc2ncc(C#N)s2)C1=O (racemic) [Compound 1528] | 0% | 0% | 0% | 0% | 0% | 0% | 0% | 0% | 0% | 0% | 0% | 0% | 0% | 0% | 0% | 0% | 0% | 0%
Cc1cc(NC(=O)[C@@H]2C(=O)N(C)C[C@H]2c2ccc(C(F)(F)F)cc2)n[nH]1 (racemic) [Compound 1532] | 0% | 0% | 0% | 0% | 0% | 0% | 0% | 0% | 0% | 0% | 0% | 0% | 0% | 0% | 0% | 0% | 0% | 0%
CN1C[C@@H](c2ccc(C(F)(F)F)cc2)[C@H](C(=O)Nc2cc[nH]n2)C1=O (racemic) [Compound 1533] | 0% | 0% | 0% | 0% | 0% | 0% | 0% | 0% | 0% | 0% | 0% | 0% | 0% | 0% | 0% | 0% | 0% | 0%
CN1C[C@@H](c2ccc(C(F)(F)F)cc2)[C@H](C(=O)Nc2nc[nH]n2)C1=O (racemic) [Compound 1534] | 0% | 0% | 0% | 0% | 0% | 0% | 0% | 0% | 0% | 0% | 0% | 10% | 0% | 0% | 0% | 0% | 0% | 10%
CN1C[C@@H](c2ccc(C(F)(F)F)cc2)[C@H](C(=O)Nc2cnccc2Cl)C1=O (racemic) [Compound 1541] | 0% | 0% | 20% | 0% | 0% | 50% | 0% | 0% | 10% | 0% | 0% | 0% | 0% | 0% | 20% | 0% | 0% | 10%
CN1C[C@@H](c2ccc(C(F)(F)F)cc2)[C@H](C(=O)Nc2ccc(C(F)(F)F)nc2Cl)C1=O (racemic) [Compound 1542] | 0% | 0% | 0% | 0% | 0% | 0% | 0% | 0% | 0% | 0% | 0% | 0% | 0% | 0% | 0% | 0% | 0% | 0%
